# Laboratory results reported in patent US10780090B2, “Heteroaryl compounds useful as inhibitors of SUMO activating enzyme” (Millennium Pharmaceuticals, Inc., priority 2014, dated 2020).
# Target: recombinant human SAE enzyme (Homo sapiens (Human), UniProt Q9UBT2)
# Experiment: SAE HTRF enzyme assay
# Type: biochemical
# Settings: for inhibition at 0.111 µM: read-out: Percent Inhibition
# In short: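 HTRF read-out using Eu-cryptate anti-Flag and allophycocyanin anti-GST antibodies, added with EDTA stop buffer and read after 2 h at 24 °C. The preceding reaction ran 105 min at 24 °C: 0.11 nM recombinant SAE, 0.5 μM ATP, Sumo-Flag, Ubc9-GST, pH 7.5. Values given as single-concentration inhibition or IC50.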
# [1] = SAE inhibition at compound concentration 0.111 μM
# [2] = SAE inhibition, class symbols, legend in nM
# Chain of recombinant human SAE enzyme (Q9UBT2 whole entry): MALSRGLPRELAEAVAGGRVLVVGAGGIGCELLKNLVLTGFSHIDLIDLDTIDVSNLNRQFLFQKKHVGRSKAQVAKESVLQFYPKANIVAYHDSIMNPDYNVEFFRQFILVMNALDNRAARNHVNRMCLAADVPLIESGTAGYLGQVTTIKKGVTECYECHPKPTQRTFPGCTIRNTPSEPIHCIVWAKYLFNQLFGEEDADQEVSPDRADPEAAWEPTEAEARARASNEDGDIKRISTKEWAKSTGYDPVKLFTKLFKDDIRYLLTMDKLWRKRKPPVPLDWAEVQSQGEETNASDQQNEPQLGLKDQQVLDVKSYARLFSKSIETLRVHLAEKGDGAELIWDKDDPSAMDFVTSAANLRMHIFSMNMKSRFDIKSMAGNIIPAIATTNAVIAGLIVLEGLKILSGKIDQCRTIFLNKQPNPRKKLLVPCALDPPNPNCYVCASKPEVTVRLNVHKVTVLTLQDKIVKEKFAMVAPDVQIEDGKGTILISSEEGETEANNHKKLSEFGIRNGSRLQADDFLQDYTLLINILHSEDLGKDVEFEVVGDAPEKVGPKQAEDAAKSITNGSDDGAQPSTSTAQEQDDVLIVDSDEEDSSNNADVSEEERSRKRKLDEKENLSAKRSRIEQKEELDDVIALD
# Chain of recombinant human SAE enzyme (Q9UBE0 whole entry partner): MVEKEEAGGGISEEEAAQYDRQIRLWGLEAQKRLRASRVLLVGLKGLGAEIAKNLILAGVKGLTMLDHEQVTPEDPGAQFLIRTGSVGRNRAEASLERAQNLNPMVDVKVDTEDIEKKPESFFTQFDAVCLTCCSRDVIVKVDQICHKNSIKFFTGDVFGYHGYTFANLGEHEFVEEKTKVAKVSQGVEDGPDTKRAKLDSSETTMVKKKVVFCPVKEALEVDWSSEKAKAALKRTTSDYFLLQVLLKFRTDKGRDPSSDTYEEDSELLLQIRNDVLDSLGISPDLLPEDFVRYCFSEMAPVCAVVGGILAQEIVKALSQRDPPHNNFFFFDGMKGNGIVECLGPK
Compound,inhibition at 0.111 µM (Concentration 0.111 μM) [%],Percent Inhibition (Concentration 0.111 μM),IC50 (class symbols A/B/C) [nM],Percent Inhibition [1] [%],IC50 [2] [nM]
"NS(=O)(=O)OC[C@H]1C[C@@H](Nc2ncncc2C(=O)c2cc(Cc3cccc(Br)c3)c(Cl)s2)C[C@@H]1O [I-112, {(1R,2S,4R)-4-[(5-{[4-(3-bromobenzyl)-5-chloro-2-thienyl]carbonyl}pyrimidin-4-yl)amino]-2-hydroxycyclopentyl}methyl sulfamate]",97,–,–,–,–
"[(1R,2S,4R)-4-{[5-({5-chloro-4-[(1R)-1-hydroxy-2-phenylethyl]-2-thienyl}carbonyl)pyrimidin-4-yl]amino}-2-hydroxycyclopentyl]methyl sulfamate and [(1R,2S,4R)-4-{[5-({5-chloro-4-[(1S)-1-hydroxy-2-phenylethyl]-2-thienyl}carbonyl)pyrimidin-4-yl]amino}-2-hydroxycyclopentyl]methyl sulfamate [I-136]",–,96,< 10,–,–
"Cc1cccc(Cc2csc(C(=O)c3cncnc3N[C@@H]3C[C@H](COS(N)(=O)=O)[C@@H](O)C3)c2)c1 [I-60, {(1R,2S,4R)-2-hydroxy-4-[(5-{[4-(3-methylbenzyl)-2-thienyl]carbonyl}pyrimidin-4-yl)amino]cyclopentyl}methyl sulfamate]",99,–,–,–,–
"Cc1sc(C(=O)c2cncnc2N[C@@H]2C[C@H](COS(N)(=O)=O)[C@@H](O)C2)cc1Cn1cc(I)cn1 [I-37, [(1R,2S,4R)-2-hydroxy-4-{[5-({4-[(4-iodo-1H-pyrazol-1-yl)methyl]-5-methyl-2-thienyl}carbonyl)pyrimidin-4-yl]amino}cyclopentyl]methyl sulfamate]",98,–,–,–,–
"Cc1sc(C(=O)c2cncnc2N[C@@H]2C[C@H](COS(N)(=O)=O)[C@@H](O)C2)cc1[C@@H]1OCCc2ccc(Cl)nc21 (single isomer, unassigned) [I-286a, [(1R,2S,4R)-4-{[5-({4-[(8S)-2-chloro-5,8-dihydro-6H-pyrano[3,4-b]pyridin-8-yl]-5-methyl-2-thienyl}carbonyl)pyrimidin-4-yl]amino}-2-hydroxycyclopentyl]methyl sulfamate or [(1R,2S,4R)-4-{[5-({4-[(8R)-2-chloro-5,8-dihydro-6H-pyrano[3,4-b]pyridin-8-yl]-5-methyl-2-thienyl}carbonyl)pyrimidin-4-yl]amino}-2-hydroxycyclopentyl]methyl sulfamate]",–,–,–,39,100 to 1000
"Cc1sc(C(=O)c2cncnc2N[C@@H]2C[C@H](COS(N)(=O)=O)[C@@H](O)C2)cc1[C@H]1OCC(F)(F)c2ccc(Cl)nc21 (mixture of isomers) [I-260, [(1R,2S,4R)-4-{[5-({4-[(8R)-2-chloro-5,5-difluoro-5,8-dihydro-6H-pyrano[3,4-b]pyridin-8-yl]-5-methyl-2-thienyl}carbonyl)pyrimidin-4-yl]amino}-2-hydroxycyclopentyl]methyl sulfamate and [(1R,2S,4R)-4-{[5-({4-[(8S)-2-chloro-5,5-difluoro-5,8-dihydro-6H-pyrano[3,4-b]pyridin-8-yl]-5-methyl-2-thienyl}carbonyl)pyrimidin-4-yl]amino}-2-hydroxycyclopentyl]methyl sulfamate]",–,98,< 10,–,–
"Cc1sc(C(=O)c2cncnc2NC2CC(O)C(COS(N)(=O)=O)C2)cc1C(O)c1cccc(Cl)c1 (mixture of isomers) [I-11, [(1R,2S,4R)-4-{[5-({4-[(R)-(3-chlorophenyl)(hydroxy)methyl]-5-methyl-2-thienyl}carbonyl)pyrimidin-4-yl]amino}-2-hydroxycyclopentyl]methyl sulfamate and [(1R,2S,4R)-4-{[5-({4-[(S)-(3-chlorophenyl)(hydroxy)methyl]-5-methyl-2-thienyl}carbonyl)pyrimidin-4-yl]amino}-2-hydroxycyclopentyl]methyl sulfamate]",–,99,< 10,–,–
"Cc1ccc2c(n1)C(c1cc(C(=O)c3cncnc3N[C@@H]3C[C@H](COS(N)(=O)=O)[C@@H](O)C3)sc1C)OCC2 (single isomer, unassigned) [I-291a, [(1R,2S,4R)-2-hydroxy-4-{[5-({5-methyl-4-[(8S)-2-methyl-5,8-dihydro-6H-pyrano[3,4-b]pyridin-8-yl]-2-thienyl}carbonyl)pyrimidin-4-yl]amino}cyclopentyl]methyl sulfamate or [(1R,2S,4R)-2-hydroxy-4-{[5-({5-methyl-4-[(8R)-2-methyl-5,8-dihydro-6H-pyrano[3,4-b]pyridin-8-yl]-2-thienyl}carbonyl)pyrimidin-4-yl]amino}cyclopentyl]methyl sulfamate]",–,–,–,17,100 to 1000
"NS(=O)(=O)OC[C@H]1C[C@@H](Nc2ncncc2C(=O)c2cc([C@@H]3OCCc4ccc(Cl)cc43)c(Cl)s2)C[C@@H]1O (single isomer, unassigned) [I-282a, [(1R,2S,4R)-4-{[5-({5-chloro-4-[(1R)-7-chloro-3,4-dihydro-1H-isochromen-1-yl]-2-thienyl}carbonyl)pyrimidin-4-yl]amino}-2-hydroxycyclopentyl]methyl sulfamate or [(1R,2S,4R)-4-{[5-({5-chloro-4-[(1S)-7-chloro-3,4-dihydro-1H-isochromen-1-yl]-2-thienyl}carbonyl)pyrimidin-4-yl]amino}-2-hydroxycyclopentyl]methyl sulfamate]",–,–,–,37,100 to 1000
"Cc1oc(C(=O)c2cncnc2N[C@@H]2C[C@H](COS(N)(=O)=O)[C@@H](O)C2)cc1[C@@H]1OCCc2ccc(Cl)cc21 (single isomer, unassigned) [I-270a, {(1R,2S,4R)-4-[(5-{4-[(1R)-7-chloro-3,4-dihydro-1H-isochromen-1-yl]-5-methyl-2-furoyl}pyrimidin-4-yl)amino]-2-hydroxycyclopentyl}methyl sulfamate or {(1R,2S,4R)-4-[(5-{4-[(1S)-7-chloro-3,4-dihydro-1H-isochromen-1-yl]-5-methyl-2-furoyl}pyrimidin-4-yl)amino]-2-hydroxycyclopentyl}methyl sulfamate]",–,79,10 to 100,–,–
"NS(=O)(=O)OC[C@H]1C[C@@H](Nc2ncncc2C(=O)c2ccc(Cc3cccc(Br)c3)o2)C[C@@H]1O [I-82, [(1R,2S,4R)-4-({5-[5-(3-bromobenzyl)-2-furoyl]pyrimidin-4-yl}amino)-2-hydroxycyclopentyl]methyl sulfamate]",99,–,–,–,–
"NS(=O)(=O)OC[C@H]1C[C@@H](Nc2ncncc2C(=O)c2cc(Cc3cccc(Cl)c3)c(Cl)s2)C[C@@H]1O [I-107, {(1R,2S,4R)-4-[(5-{[5-chloro-4-(3-chlorobenzyl)-2-thienyl]carbonyl}pyrimidin-4-yl)amino]-2-hydroxycyclopentyl}methyl sulfamate]",96,–,< 10,–,–
"C[C@](O)(c1csc(C(=O)c2cncnc2N[C@@H]2C[C@H](COS(N)(=O)=O)[C@@H](O)[C@H]2O)c1)c1cccc(Br)n1 (single isomer, unassigned) [I-1b, [(1R,2R,3S,4R)-4-{[5-({4-[(1S)-1-(6-bromopyridin-2-yl)-1-hydroxyethyl]-2-thienyl}carbonyl)pyrimidin-4-yl]amino}-2,3-dihydroxycyclopentyl]methyl sulfamate or [(1R,2R,3S,4R)-4-{[5-({4-[(1R)-1-(6-bromopyridin-2-yl)-1-hydroxyethyl]-2-thienyl}carbonyl)pyrimidin-4-yl]amino}-2,3-dihydroxycyclopentyl]methyl sulfamate]",–,100,< 10,–,–
"NS(=O)(=O)OC[C@H]1C[C@@H](Nc2ncncc2C(=O)c2cc([C@@H]3OCc4ccc(Cl)cc43)c(Cl)s2)C[C@@H]1O (single isomer, unassigned) [I-310a, [(1R,2S,4R)-4-{[5-({5-chloro-4-[(1R)-6-chloro-1,3-dihydro-2-benzofuran-1-yl]-2-thienyl}carbonyl)pyrimidin-4-yl]amino}-2-hydroxycyclopentyl]methyl sulfamate or [(1R,2S,4R)-4-{[5-({5-chloro-4-[(1S)-6-chloro-1,3-dihydro-2-benzofuran-1-yl]-2-thienyl}carbonyl)pyrimidin-4-yl]amino}-2-hydroxycyclopentyl]methyl sulfamate]",–,–,–,27,100 to 1000
"N[C@H](c1cccc(Cl)c1)c1cc(C(=O)c2cncnc2N[C@@H]2C[C@H](COS(N)(=O)=O)[C@@H](O)C2)sc1Cl (single isomer, unassigned) [I-15b, [(1R,2S,4R)-4-{[5-({4-[(R)-amino(3-chlorophenyl)methyl]-5-chloro-2-thienyl}carbonyl)pyrimidin-4-yl]amino}-2-hydroxycyclopentyl]methyl sulfamate or [(1R,2S,4R)-4-{[5-({4-[(S)-amino(3-chlorophenyl)methyl]-5-chloro-2-thienyl}carbonyl)pyrimidin-4-yl]amino}-2-hydroxycyclopentyl]methyl sulfamate]",–,100,< 10,–,–
"NS(=O)(=O)OCC1CC(Nc2ncncc2C(=O)c2cc(C(O)(c3cccc(Cl)c3)C3CC3)cs2)CC1O (mixture of isomers) [I-50, [(1R,2S,4R)-4-{[5-({4-[(S)-(3-chlorophenyl)(cyclopropyl)hydroxymethyl]-2-thienyl}carbonyl)pyrimidin-4-yl]amino}-2-hydroxycyclopentyl]methyl sulfamate and [(1R,2S,4R)-4-{[5-({4-[(R)-(3-chlorophenyl)(cyclopropyl)hydroxymethyl]-2-thienyl}carbonyl)pyrimidin-4-yl]amino}-2-hydroxycyclopentyl]methyl sulfamate]",–,99,< 10,–,–
